# Measurements published in patent publication US7723364B2, “N-[2-(2-pyridinyl) ethyl]benzamide compounds and their use as fungicides” (Bayer Cropscience SA, priority 2003, dated 2010).
# Assays:
# Alternaria brassicae = test: In vivo test on Alternaria brassicae (leaf spot of crucifers) on radish plants; conditions: Alternaria brassicae; dose of 330 ppm; radish plants sprayed 24 hours before contamination; grading 6 to 7 days after contamination vs control plants; read-out: good (at least 50%) or total protection
# Description: In Vivo Test on Alternaria brassicae (Leaf Spot of Crucifers)
# (§1) The active ingredient tested is prepared by potter homogenisation in a concentrated suspension type formulation at 100 g/l. This suspension is then diluted with water to obtain the desired active material concentration.
# Radish plants (Pernot variety) in starter cups, sown on a 50/50 peat soil-pozzolana substrate and grown at 18-20° C., are treated at the cotyledon stage by spraying with the aqueous suspension described above.
# (§2) Plants, used as controls, are treated with an aqueous solution not containing the active material.
# After 24 hours, the plants are contaminated by spraying them with an aqueous suspension of Alternaria brassicae spores (40,000 spores per cm^3). The spores are collected from a 12 to 13 days-old culture.
# The contaminated radish plants are incubated for 6-7 days at about 18° C., under a humid atmosphere.
# Grading is carried out 6 to 7 days after the contamination, in comparison with the control plants.
# [1] = test system: Erysiphe graminis f. sp. tritici; test: In vivo test on Erysiphe graminis f. sp. tritici (powdery mildew of wheat); conditions: Blumeria graminis; dose of 330 ppm; wheat plants sprayed 24 hours before contamination; grading 7 to 14 days after contamination vs control plants; read-out: good (at least 50%) or total protection
# Description: In Vivo Test on Erysiphe graminis f. sp. tritici (Powdery Mildew of Wheat)
# as §1
# Wheat plants (Audace variety) in starter cups, sown on 50/50 peat soil-pozzolana substrate and grown at 12° C., are treated at the 1-leaf stage (10 cm tall) by spraying with the aqueous suspension described above.
# as §2
# After 24 hours, the plants are contaminated by dusting them with Erysiphe graminis f. sp. tritici spores, the dusting being carried out using diseased plants.
# Grading is carried out 7 to 14 days after the contamination, in comparison with the control plants.
# Under these conditions, good (at least 50%) or total protection is observed at a dose of 330 ppm with the following compounds: 1, 3, 4, 5, 6, 8, 9, 10, 11, 12, 13, 18, 38, 50, 43 and 45.
# Botrytis cinerea = test: In vivo test on Botrytis cinerea (cucumber grey mould); conditions: Botrytis cinerea; dose of 330 ppm; cucumber plants sprayed 24 hours before contamination; grading 5/7 days after contamination vs control plants; read-out: good (at least 50%) or total protection
# Description: In Vivo Test on Botrytis cinerea (Cucumber Grey Mould)
# as §1
# (§3) Cucumber plants (Marketer variety) in starter cups, sown on a 50/50 peat soil-pozzolana substrate and grown at 18-20° C., are treated at the cotyledon Z11 stage by spraying with the aqueous suspension described above. Plants, used as controls, are treated with an aqueous solution not containing the active material.
# After 24 hours, the plants are contaminated by depositing drops of an aqueous suspension of Botrytis cinerea spores (150,000 spores per ml) on upper surface of the leaves. The spores are collected from a 15-day-old culture and are suspended in a nutrient solution composed of:
# The contaminated cucumber plants are settled for 5/7 days in a climatic room at 15-11° C. (day/night) and at 80% relative humidity.
# Grading is carried out 5/7 days after the contamination, in comparison with the control plants. Under these conditions, good (at least 50%) or total protection is observed at a dose of 330 ppm with the following compounds: 1, 2, 3, 4, 5, 6, 9, 10, 13, 18, 21, 22, 23, 25, 26, 27, 28, 29, 32, 34, 35, 38, 40, 43, 44, 45, 46, 47, 50, 51, 52, 53, 57 and 62.
# Pyrenophora teres = test: In vivo test on Pyrenophora teres (barley net blotch); conditions: 288 h, dose of 330 ppm, barley plants sprayed 24 hours before contamination, grading 12 days after contamination vs control plants, read-out: good (at least 50%) or total protection
# Description: In Vivo Test on Pyrenophora teres (Barley Net Blotch)
# as §1
# as §3, with “Barley” for “Cucumber”, “(Express” for “(Marketer”, “12°” for “18-20°”, “1-leaf” for “cotyledon Z11”, “stage (10 cm tall)” for “stage”
# After 24 hours, the plants are contaminated by spraying them with an aqueous suspension of Pyrenophora teres spores (12,000 spores per ml). The spores are collected from a 12-day-old culture. The contaminated barley plants are incubated for 24 hours at about 20° C. and at 100% relative humidity, and then for 12 days at 80% relative humidity.
SMILES,pest or weed control at 330 ppm (Alternaria brassicae) [%],pest or weed control at 330 ppm [1] [%],pest or weed control at 330 ppm (Botrytis cinerea) [%],pest or weed control at 330 ppm (Pyrenophora teres) [%],melting point [°C]
"O=C(NCCc1ncc(Cl)cc1Cl)c1ccccc1C(F)(F)F [Compound 1, N-[2-(3,5-dichloro-2-pyridinyl)ethyl]-2-(trifluoromethyl)benzamide]",≥ 50,≥ 50,≥ 50,≥ 50,118
"O=C(NCCc1ncc(Cl)cc1Cl)c1ccccc1I [Compound 5, N-[2-(3,5-dichloro-2-pyridinyl)ethyl]-2-(iodo)benzamide]",≥ 50,≥ 50,≥ 50,≥ 50,133
Cc1ccc(CCNC(=O)c2ccccc2C(F)(F)F)nc1 [Compound 9],≥ 50,≥ 50,≥ 50,≥ 50,–
O=C(NCCc1ncc(Cl)cc1F)c1ccccc1C(F)(F)F [Compound 10],≥ 50,≥ 50,≥ 50,≥ 50,–
O=C(NCCc1nc(F)ccc1Cl)c1ccccc1C(F)(F)F [Compound 13],≥ 50,≥ 50,≥ 50,≥ 50,–
Cc1cc(Br)cnc1CCNC(=O)c1ccccc1C(F)(F)F [Compound 18],≥ 50,≥ 50,≥ 50,≥ 50,–
O=C(NCCc1ncc(Cl)cc1Br)c1ccccc1C(F)(F)F [Compound 38],≥ 50,≥ 50,≥ 50,≥ 50,–
Cc1c(F)c(F)nc(CCNC(=O)c2ccccc2I)c1F [Compound 43],≥ 50,≥ 50,≥ 50,≥ 50,–
O=C(NCCc1nc(F)c(F)cc1F)c1ccccc1I [Compound 45],≥ 50,≥ 50,≥ 50,≥ 50,–
